Tested on: Adult stem cells from peripheral blood (CD34+/CD38−)
Test: viability and cell number of peripheral blood stem cells expanded in a rotatable TVEMF bioreactor (Example 4)
Assay type: cell-based
Conditions: 20 ppm added at initiation, end of 14 days, Sample 2 cells from an individual with known liver damage
Procedure: The rotatable bioreactor may preferably be filled with culture medium consisting of Isocove's modified Dulbecco's medium (IMDM) (GIBCO, Grand Island N.Y.), supplemented with 5% human albumin, 100 ng/ml recombinant human G-CSF (Amgen Inc., Thousand Oaks, Calif.), and 100 ng/ml recombinant human stem cell factor (SCF) (Amgen). In addition, D-Penicillamine [D(−)-2-Amino-3-mercapto-3-methylbutonoic acid] (Sigma-Aldrich) a copper chelating agent, dissolved in DMSO, may preferably be introduced to the culture medium in the rotatable bioreactor in an amount of 10 ppm. Adult stem cells from peripheral blood (CD34+/CD38−) may preferably be placed in the culture chamber of the rotatable bioreactor at a concentration of 0.75×10^6 cells/ml.
Two samples of peripheral blood stem cells should preferably be prepared by this method. Sample 1 should preferably be from an individual with no known liver damage. Sample 2 should preferably be from an individual with known liver damage. The samples should be prepared as above and placed in two different rotatable bioreactors under the conditions noted in Example 1 and at the same concentrations.

## CC(=O)Nc1ccc(O)cc1 [acetaminophen]
  viability and number of cells counted: neither die nor grow, but rather, remain unchanged

Reference: US20070190520A1, “METHOD OF CHARACTERIZING A BIOLOGICALLY ACTIVE COMPOUND” (priority 2006, published 2007)
